Assay [1] addresses T1, Oxysterols receptor LXR-beta (Homo sapiens, UniProt P55055).
T1 sequence (P55055 whole entry): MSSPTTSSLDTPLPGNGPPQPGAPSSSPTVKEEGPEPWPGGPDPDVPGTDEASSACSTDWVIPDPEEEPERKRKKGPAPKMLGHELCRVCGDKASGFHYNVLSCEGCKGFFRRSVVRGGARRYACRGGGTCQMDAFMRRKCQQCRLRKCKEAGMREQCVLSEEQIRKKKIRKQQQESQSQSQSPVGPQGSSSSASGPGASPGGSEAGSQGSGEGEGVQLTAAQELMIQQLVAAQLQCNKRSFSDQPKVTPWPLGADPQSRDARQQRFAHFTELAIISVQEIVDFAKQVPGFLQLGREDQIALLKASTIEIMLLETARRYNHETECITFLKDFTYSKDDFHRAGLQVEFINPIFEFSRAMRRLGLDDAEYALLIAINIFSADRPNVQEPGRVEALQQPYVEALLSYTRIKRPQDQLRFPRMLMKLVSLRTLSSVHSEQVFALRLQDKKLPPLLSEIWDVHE
Nature of the assay: LXR agonists, Gal4 luciferase reporter, dose response, counter-screen for ssDAF-12 agonist project, cell-based, luminescence, HEK293, S. stercoralis campaign (AID 720737). To be noted: read-out: IC50 (the source's name). In kind it is functional.

The target of assay [2] is T1, Oxysterols receptor LXR-beta. In kind it is functional, cell-based.
Assay [3] can be described thus: Shn3 3'UTR reporter inhibitors, dose response, cell-based, Clone20 osteoblasts, firefly luciferase, cherry-picked (AID 624132).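 Also: firefly luciferase luminescence from reporter carrying the Shn3 3'UTR in osteoblasts.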 The format is functional.
The target of assay [4] is T2, Disintegrin and metalloproteinase domain-containing protein 17 (Homo sapiens, UniProt P78536). Nature of the assay: exosite inhibitors of ADAM17, dose response, biochemical (AID 743260).
Assay [5] in a line: control 3'UTR Renilla luciferase suppression, dose response, counter-screen for Shn3 inhibitor project, cell-based, Clone20-Shn3RL, cherry-picked (AID 624133). In kind it is functional. For orientation: A counterscreen serves to expose hits that act by an unwanted route or on another target.
Assay [6] deals with T2, Disintegrin and metalloproteinase domain-containing protein 17. Nature of the assay: ADAM17 protease inhibitors, dose response, counter-screen for ADAM10 exosite inhibitor project, biochemical, quenched FRET substrate (AID 743253).
A short description of assay [7]: ADAM10 protease inhibitors, dose response, selectivity assay for ADAM17 exosite inhibitor project, biochemical, FRET peptide substrate, recombinant human ADAM10 (AID 743259).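 Also: ADAM10 enzyme cleaving a FRET peptide substrate.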
Assay [8] in a line: HepG2 cell cytotoxicity, dose response, cytotoxicity control for Shn3 inhibitor project, CellTiter-Glo, cherry-picked (AID 624134). In kind it is functional, cell-based. On the technique in general: ATP-based viability assays read luminescence as a measure of living cells.
Assay [9] is described as follows: ADAM10 inhibitors, peptide cleavage, dose response, biochemical, QFRET (AID 743254).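 Also: ADAM10 enzyme with the DM2 quenched FRET peptide as substrate; EDANS fluorescence gain as the protease cuts the substrate; inhibitor potency against ADAM10 proteolytic activity.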
Assay [10] in a line: non-specific cell cytotoxicity, dose response, cytotoxicity control for PAX8 inhibitor project, plate reader, dry powder samples (AID 743021). The format is functional, cell-based.
Assay [11] addresses T3, Beta-lactamase (Pseudomonas aeruginosa, UniProt Q79MP6). Nature of the assay: IMP-1 metallo-beta-lactamase inhibitors, dose response, selectivity assay for VIM-2 inhibitor project, biochemical, epi-absorbance (AID 1920).
Assay [12] addresses T3, Beta-lactamase. Nature of the assay: […] counterscreen for selective VIM-2 inhibitors: dose response biochemical high throughput screening assay to identify inhibitors of IMP-1 metallo-beta-lactamase.
The target of assay [13] is Beta-lactamase (Salmonella choleraesuis (strain SC-B67), UniProt Q5J463). Put plainly: Epi-absorbance-based counterscreen for selective VIM-2 inhibitors: dose response biochemical high throughput screening assay to identify inhibitors of TEM-1 serine-beta-lactamase.
Assay [14] has as its target DNA dC->dU-editing enzyme APOBEC-3G (Homo sapiens, UniProt Q9HC16). Nature of the assay: Dose Response confirmation of small molecule APOBEC3G DNA Deaminase Inhibitors via a fluorescence-based single-stranded DNA deaminase assay. [Related pubchem assays (depositor defined):AID493012, AID493028]. In kind it is functional.
The nature of assay [15]: cytotoxicity toward NIH3T3 fibroblasts, dose response, counter-screen, cell-based, ATP luminescence, mouse fibroblasts (AID 2010).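 Also: cells exposed to compound for about 90 hours before reading.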 In kind it is functional.
Assay [16] is described as follows: inhibitors of intracellular T. cruzi replication, confirmation, NIH3T3 host cells, beta-gal luminescence (AID 2044).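 Also: intracellular parasites grown in NIH/3T3 mouse fibroblasts as host cells; luminescent beta-galactosidase reporter signal from transgenic T. cruzi replicating inside host cells; inhibitors lower the luminescence signal.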 The format is functional, cell-based.
The subject of another assay is H4. Nature of the assay: Luminescence Cell-Based Dose Response HTS to Identify Activators of 5'UTR Stem-Loop Driven Prion Protein mRNA Translation in H4 Neuroglioblastoma Cells. [Related pubchem assays: 1829 (Project Summary), 1814 (Primary HTS)]. In kind it is functional. As to conditions: Homo sapiens.
A short description of assay [17]: Luminescence Cell-Based Dose Confirmation HTS to Identify Activators of 5'UTR Stem-Loop Driven Alpha-Synuclein mRNA Translation in H4 Neuroglioblastoma Cells. [Related pubchem assays: 1829 (Project Summary), 1814 (Primary HTS)]. The format is functional.
Assay [18] can be described thus: Luminescence Cell-Based Dose Response HTS to Identify Activators of Luciferase Translation or Activity in H4 […] Cells. [Related pubchem assays: 1829 (Project Summary), 1814 (Primary HTS)]. The format is functional.
Assay [19] is described as follows: Luminescence-based cell-based high throughput dose response assay to identify activators of the DAF-12 from the parasite S. stercoralis (ssDAF-12). In kind it is functional.
Assay [20] addresses T4, Endoribonuclease toxin MazF (Escherichia coli K-12, UniProt P0AE70).
T4 sequence (P0AE70 whole entry): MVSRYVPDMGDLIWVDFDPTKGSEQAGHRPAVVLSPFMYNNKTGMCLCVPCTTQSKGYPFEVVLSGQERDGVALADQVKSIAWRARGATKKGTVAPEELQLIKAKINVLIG
Nature of the assay: fluorescent RNA oligo signal without MazF, dose response, counter-screen for MazEF activator project, biochemical, fluorescence, single-stranded RNase substrate (AID 588502). In kind it is functional.

Assay [21] has as its target T4, Endoribonuclease toxin MazF. Put plainly: MazF toxin RNase activators, dose response, biochemical, fluorescence, single-stranded RNA substrate, uHTS hits (AID 588481). The format is functional.
Assay [22] addresses Arf-GAP with SH3 domain, ANK repeat and PH domain-containing protein 1 (Homo sapiens, UniProt Q9ULH1). In kind it is functional.
Assay [23] in a line: inhibitors of PGC1a acetylation in cells, dose response, cell-based, cherry-picked samples (AID 720514).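 Also: potency may reflect raised or lowered acetylation signal.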 In kind it is functional.
The nature of assay [24]: A549 cell cytotoxicity, dose response, cytotoxicity control, cherry-picks, 26 µM top dose (AID 1053119). In kind it is functional, cell-based.

Broadly, the AC50 is the concentration at which the activity in the assay is half-maximal. By IC50 is commonly meant the concentration that inhibits the measured activity by half.

Calls of active or inactive are those of the source. A value given as a limit tells only on which side of the number the result lay.

T2 sequence (P78536 whole entry, the tested form may be a part): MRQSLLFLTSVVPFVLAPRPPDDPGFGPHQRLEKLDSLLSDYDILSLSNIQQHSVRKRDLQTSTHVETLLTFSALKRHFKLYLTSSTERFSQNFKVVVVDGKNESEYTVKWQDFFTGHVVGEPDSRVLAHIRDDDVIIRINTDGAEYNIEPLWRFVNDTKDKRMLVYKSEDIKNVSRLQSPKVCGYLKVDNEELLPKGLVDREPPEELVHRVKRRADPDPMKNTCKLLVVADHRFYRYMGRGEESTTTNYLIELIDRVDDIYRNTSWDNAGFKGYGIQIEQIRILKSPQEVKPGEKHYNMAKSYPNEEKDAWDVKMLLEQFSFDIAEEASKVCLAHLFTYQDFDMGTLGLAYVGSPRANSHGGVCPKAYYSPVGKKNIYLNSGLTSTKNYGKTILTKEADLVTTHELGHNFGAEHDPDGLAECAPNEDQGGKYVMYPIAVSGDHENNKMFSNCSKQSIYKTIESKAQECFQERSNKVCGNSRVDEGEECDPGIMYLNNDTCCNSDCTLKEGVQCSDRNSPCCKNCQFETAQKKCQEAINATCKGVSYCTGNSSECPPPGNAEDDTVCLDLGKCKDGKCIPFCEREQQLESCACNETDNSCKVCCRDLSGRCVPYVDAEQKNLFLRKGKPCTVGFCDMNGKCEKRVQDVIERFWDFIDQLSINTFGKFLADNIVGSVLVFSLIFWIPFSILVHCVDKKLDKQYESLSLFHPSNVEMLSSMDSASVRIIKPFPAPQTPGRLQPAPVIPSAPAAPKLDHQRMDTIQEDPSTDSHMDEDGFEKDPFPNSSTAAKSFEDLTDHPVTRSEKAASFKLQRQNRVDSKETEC
T3 sequence (Q79MP6 whole entry): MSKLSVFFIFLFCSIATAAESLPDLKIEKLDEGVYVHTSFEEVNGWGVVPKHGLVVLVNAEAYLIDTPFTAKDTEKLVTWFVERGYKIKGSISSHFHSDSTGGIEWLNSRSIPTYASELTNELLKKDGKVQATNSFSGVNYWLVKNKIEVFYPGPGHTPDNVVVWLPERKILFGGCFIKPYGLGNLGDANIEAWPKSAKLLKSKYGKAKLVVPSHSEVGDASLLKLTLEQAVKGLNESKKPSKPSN
Beta-lactamase (Salmonella choleraesuis (strain SC-B67), UniProt Q5J463), sequence (Q5J463 whole entry): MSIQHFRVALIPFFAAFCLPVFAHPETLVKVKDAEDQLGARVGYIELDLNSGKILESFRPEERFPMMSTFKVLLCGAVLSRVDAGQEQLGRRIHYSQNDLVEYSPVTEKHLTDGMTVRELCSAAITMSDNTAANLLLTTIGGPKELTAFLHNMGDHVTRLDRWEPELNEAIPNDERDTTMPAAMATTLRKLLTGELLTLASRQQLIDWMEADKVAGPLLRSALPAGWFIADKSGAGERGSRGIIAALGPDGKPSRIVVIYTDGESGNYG
Arf-GAP with SH3 domain, ANK repeat and PH domain-containing protein 1, sequence (Q9ULH1 whole entry, the tested form may be a part): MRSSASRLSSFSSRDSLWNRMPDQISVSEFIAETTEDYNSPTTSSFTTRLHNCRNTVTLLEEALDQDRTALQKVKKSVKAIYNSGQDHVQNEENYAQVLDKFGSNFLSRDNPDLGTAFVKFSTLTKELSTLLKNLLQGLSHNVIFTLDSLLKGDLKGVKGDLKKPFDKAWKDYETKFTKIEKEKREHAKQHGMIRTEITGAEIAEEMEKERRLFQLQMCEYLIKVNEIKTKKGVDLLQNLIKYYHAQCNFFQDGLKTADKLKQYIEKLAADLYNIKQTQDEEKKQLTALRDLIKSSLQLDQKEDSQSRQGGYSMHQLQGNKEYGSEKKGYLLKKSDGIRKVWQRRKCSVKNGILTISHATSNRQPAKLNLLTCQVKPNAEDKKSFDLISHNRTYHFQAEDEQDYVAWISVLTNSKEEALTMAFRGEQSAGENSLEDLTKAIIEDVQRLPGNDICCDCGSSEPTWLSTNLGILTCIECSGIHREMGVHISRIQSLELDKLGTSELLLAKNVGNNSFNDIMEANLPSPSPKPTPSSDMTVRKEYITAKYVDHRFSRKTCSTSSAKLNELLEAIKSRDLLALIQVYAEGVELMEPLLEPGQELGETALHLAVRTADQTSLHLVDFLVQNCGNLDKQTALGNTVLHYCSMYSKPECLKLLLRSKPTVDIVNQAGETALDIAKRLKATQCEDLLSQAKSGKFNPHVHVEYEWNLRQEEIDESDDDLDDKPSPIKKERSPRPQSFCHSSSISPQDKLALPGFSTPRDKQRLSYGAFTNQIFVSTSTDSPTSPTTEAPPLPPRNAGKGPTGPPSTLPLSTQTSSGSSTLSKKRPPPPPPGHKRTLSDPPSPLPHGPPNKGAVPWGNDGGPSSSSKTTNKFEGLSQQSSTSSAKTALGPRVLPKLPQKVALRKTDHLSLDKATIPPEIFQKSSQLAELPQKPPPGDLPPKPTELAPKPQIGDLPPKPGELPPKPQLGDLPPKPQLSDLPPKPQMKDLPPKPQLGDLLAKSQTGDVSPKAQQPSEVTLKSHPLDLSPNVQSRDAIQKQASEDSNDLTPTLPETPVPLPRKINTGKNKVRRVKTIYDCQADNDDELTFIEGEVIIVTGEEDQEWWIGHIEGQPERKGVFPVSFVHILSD
DNA dC->dU-editing enzyme APOBEC-3G, sequence (Q9HC16 whole entry): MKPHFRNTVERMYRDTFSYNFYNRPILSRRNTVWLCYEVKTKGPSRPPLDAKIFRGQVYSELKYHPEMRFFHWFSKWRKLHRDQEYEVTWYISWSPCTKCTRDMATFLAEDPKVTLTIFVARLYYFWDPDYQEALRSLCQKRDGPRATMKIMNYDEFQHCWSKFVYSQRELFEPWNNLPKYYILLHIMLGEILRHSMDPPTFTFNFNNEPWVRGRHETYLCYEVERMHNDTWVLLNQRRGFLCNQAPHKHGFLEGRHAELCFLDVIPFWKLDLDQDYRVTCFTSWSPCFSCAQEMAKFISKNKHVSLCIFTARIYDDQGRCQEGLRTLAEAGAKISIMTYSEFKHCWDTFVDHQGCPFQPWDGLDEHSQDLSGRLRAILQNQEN

`NC(=NOC(=O)c1ccccc1Cl)c1ccccc1`: the EC50 in [1] and in [2] was > 67.6 µM (inactive) in each case.

As for `C=CCC[C@H](Cc1ccc(F)cc1)C(=O)OC[C@H](Cc1c[nH]c2ccccc12)NC(=O)[C@@H](CC=C)CC(=O)N[C@H](CO)Cc1ccccc1`, the AC50 in assay [3] is 4.44 µM (active); in assay [5] it was 15.8 µM (active); in assay [8] it was 17 µM (active). Moreover, the IC50 in [4] was > 69.5 µM (inactive); in [6] it was > 69.5 µM (inactive); in assay [7], 58.9 µM (inactive); in [9], > 69.5 µM (inactive).

With `Oc1nc2ccccc2n1C1CCN(C(c2ccccc2OC(F)(F)F)c2nnnn2-c2ccc3c(c2)OCCO3)CC1` (stereo unspecified), in [10], the concentration at half-maximal activity (AC50) was 37.1 µM (active). Moreover, the IC50 in assay [9] was > 69.5 µM (inactive).

Turning to `CCCCn1c(S)nnc1-c1nn(C)c(C)c1Cl`, the IC50 on Beta-lactamase [11] was > 59.6 µM (inactive); at Beta-lactamase [12], > 59.6 µM (inactive); on Beta-lactamase [13] it was > 59.6 µM (inactive); in [14] it was 12.5 µM (active).

Regarding `CCCn1c(SCC(=O)N2c3ccccc3Sc3ccccc32)nc2ccccc21`, the values for the IC50 in assay [4] and in [7] were > 69.5 µM (inactive) and 19.7 µM (inactive), respectively. Also, the values for the EC50 in assay [15] and in assay [16] were > 60 µM (not active) and 2.9 µM (active), respectively.

Regarding `O=C(CSc1ncccc1-c1nc2ccccc2[nH]1)N1CCc2ccccc21`, the EC50 in the assay with H4 was 21.1 µM (inconclusive); in [17], 15.1 µM (active); in assay [18] it was 4.81 µM (active). For the same compound, the half-maximal activity concentration (AC50) in [10] is 59.9 µM (active).

`N=C(NOC(=O)c1ccccc1Cl)c1ccccc1`: in assay [19], the IC50 is > 67.6 µM (inactive). In addition, the EC50 in “cells” is > 67.6 µM (inactive).

On to `Cc1ccc(NC(=O)c2ccc(NCc3ccco3)c([N+](=O)[O-])c2)cc1Cl`, for which the EC50 in [20] and in assay [21] was > 99 µM (inactive) throughout. For the same compound, the IC50 in assay [22] is 33.6 µM (inactive).

Regarding `O=C(/C=C/c1ccc(N2CCCCC2)c([N+](=O)[O-])c1)c1ccc(O)cc1`, the AC50 in assay [23] is 28.1 µM (active).

Consider `C[C@H](CO)N1C[C@H](C)[C@@H](CN(C)Cc2cccnc2)Oc2cc(C#CC3CCCCC3)ccc2S1(=O)=O`, for which the concentration at half-maximal activity (AC50) in [23] was 6.45 µM (active).

`Cc1ccn2cc(-c3ccc(NC(=O)c4ccco4)cc3)nc2c1`: the AC50 in [24] was > 52 µM (inactive).

Values taken from ChEMBL document CHEMBL1201862, “PubChem BioAssay data set” (2004).
